# Test results taken from publication PMC2642980 (Bioorganic & medicinal chemistry letters, 2008).
# pEC50: −log10 of the molar value.
# Tests used:
# Caco-2 monolayers = assay: Transepithelial transport through Caco-2 monolayers; conditions: apical pH 6.0 MES to basolateral pH 7.4 HEPES, 21 days post-seeding
# [1] = biological target: T1, human PEPT1 transporter (HeLa/hPEPT1 cells) (Homo sapiens, UniProt P46059); assay: Direct uptake in HeLa cells overexpressing hPEPT1; conditions: fold uptake over control cells not expressing PEPT1
# T1 sequence (P46059 1-708): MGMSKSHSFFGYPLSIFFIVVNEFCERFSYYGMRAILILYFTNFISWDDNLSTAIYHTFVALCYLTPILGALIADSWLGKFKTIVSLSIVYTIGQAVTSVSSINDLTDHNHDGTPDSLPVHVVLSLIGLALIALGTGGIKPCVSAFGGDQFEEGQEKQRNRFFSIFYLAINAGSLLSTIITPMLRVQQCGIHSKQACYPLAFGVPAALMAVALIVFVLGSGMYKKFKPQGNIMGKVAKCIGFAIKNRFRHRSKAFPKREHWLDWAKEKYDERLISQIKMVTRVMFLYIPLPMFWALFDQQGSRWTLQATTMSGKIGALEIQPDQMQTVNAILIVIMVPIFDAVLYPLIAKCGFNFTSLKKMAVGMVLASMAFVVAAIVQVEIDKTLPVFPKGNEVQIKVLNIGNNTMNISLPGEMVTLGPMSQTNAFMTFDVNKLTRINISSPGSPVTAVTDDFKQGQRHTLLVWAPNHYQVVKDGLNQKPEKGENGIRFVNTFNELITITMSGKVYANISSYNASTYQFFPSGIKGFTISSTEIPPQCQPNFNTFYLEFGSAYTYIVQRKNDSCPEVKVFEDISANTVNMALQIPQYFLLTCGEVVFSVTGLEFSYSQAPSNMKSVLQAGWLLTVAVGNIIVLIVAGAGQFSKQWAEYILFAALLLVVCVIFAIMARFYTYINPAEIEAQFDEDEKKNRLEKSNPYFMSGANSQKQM
# [2] = rat
# cowpox virus = format: cell-based; conditions: read-out: EC50 Cowpox
# [3] = cited from earlier work
# vaccinia virus = format: cell-based; conditions: read-out: EC50 Vaccinia
# [4] = cited from earlier work; remark: listed apart in the source
molecule,measurement,setting,value
Nc1ncnc2c1ncn2[C@@H]1O[C@H](COC(=O)[C@@H](N)Cc2ccccc2)[C@@H](O)[C@@H]1O [Compound 7l],Caco-2 permeability,Caco-2 monolayers,0.668 cm/s × 10^6
CC(C)[C@@H](N)C(=O)OC[C@H]1O[C@@H](n2cnc3c(N)ncnc32)[C@@H](O)[C@@H]1O [Compound 7a],Caco-2 permeability,Caco-2 monolayers,0.601 cm/s × 10^6
CC[C@H](C)[C@H](N)C(=O)OC[C@H]1O[C@@H](n2cnc3c(N)ncnc32)[C@@H](O)[C@@H]1O [Compound 7k],hPEPT1 control (uptake ratio HeLa/hPEPT1 over HeLa control),[1],26.9
same,Caco-2 permeability,Caco-2 monolayers,1.026 cm/s × 10^6
CC(C)[C@H](N)C(=O)OC[C@H]1O[C@@H](n2cnc3c(N)ncnc32)[C@@H](O)[C@@H]1O [Compound 7i],hPEPT1 control (uptake ratio HeLa/hPEPT1 over HeLa control),[1],20.7
CC(C)[C@H](N)C(=O)OCCOCn1cnc2c(=O)[nH]c(N)nc21 [Valacyclovir],hPEPT1 control (uptake ratio HeLa/hPEPT1 over HeLa control),[1],19.0
1-Beta-D-arabinofuranosyladenine [Vidarabine],T1/2 Plasma,[2],25.8 min
same,pEC50,cowpox virus,4.90
same,Solubility in water,[3],~ 0.47 mg/ml
same,pEC50,vaccinia virus,5.21
same,Caco-2 permeability,Caco-2 monolayers,0.083 cm/s × 10^6
"O=c1[nH]cnc2c1ncn2[C@@H]1O[C@H](CO)[C@@H](O)[C@@H]1O [ara-H, ara-hypoxanthine]",Fold less potent than vidarabine (antiviral activity),[4],at least 10 fold
